Measurements taken from patent US12358886B2, “Heterocyclic compounds for use in the treatment of cancer” (Artios Pharma Limited, priority 2019, dated 2025).
Read-outs that look alike come from different tables or passages of the source. Blank lines part the entries; values can stand above or below the compound they belong to.

Target: Polθ protein (amino acids 2-2590) (Homo sapiens, UniProt O75417)
Experiment: Polθ full length enzyme potency assay (PicoGreen)
Details: full length N-His, C-term FLAG tagged Polθ, PicoGreen fluorescence, 12 point concentration response

Sequence of Polθ protein (amino acids 2-2590) (O75417 2-2590): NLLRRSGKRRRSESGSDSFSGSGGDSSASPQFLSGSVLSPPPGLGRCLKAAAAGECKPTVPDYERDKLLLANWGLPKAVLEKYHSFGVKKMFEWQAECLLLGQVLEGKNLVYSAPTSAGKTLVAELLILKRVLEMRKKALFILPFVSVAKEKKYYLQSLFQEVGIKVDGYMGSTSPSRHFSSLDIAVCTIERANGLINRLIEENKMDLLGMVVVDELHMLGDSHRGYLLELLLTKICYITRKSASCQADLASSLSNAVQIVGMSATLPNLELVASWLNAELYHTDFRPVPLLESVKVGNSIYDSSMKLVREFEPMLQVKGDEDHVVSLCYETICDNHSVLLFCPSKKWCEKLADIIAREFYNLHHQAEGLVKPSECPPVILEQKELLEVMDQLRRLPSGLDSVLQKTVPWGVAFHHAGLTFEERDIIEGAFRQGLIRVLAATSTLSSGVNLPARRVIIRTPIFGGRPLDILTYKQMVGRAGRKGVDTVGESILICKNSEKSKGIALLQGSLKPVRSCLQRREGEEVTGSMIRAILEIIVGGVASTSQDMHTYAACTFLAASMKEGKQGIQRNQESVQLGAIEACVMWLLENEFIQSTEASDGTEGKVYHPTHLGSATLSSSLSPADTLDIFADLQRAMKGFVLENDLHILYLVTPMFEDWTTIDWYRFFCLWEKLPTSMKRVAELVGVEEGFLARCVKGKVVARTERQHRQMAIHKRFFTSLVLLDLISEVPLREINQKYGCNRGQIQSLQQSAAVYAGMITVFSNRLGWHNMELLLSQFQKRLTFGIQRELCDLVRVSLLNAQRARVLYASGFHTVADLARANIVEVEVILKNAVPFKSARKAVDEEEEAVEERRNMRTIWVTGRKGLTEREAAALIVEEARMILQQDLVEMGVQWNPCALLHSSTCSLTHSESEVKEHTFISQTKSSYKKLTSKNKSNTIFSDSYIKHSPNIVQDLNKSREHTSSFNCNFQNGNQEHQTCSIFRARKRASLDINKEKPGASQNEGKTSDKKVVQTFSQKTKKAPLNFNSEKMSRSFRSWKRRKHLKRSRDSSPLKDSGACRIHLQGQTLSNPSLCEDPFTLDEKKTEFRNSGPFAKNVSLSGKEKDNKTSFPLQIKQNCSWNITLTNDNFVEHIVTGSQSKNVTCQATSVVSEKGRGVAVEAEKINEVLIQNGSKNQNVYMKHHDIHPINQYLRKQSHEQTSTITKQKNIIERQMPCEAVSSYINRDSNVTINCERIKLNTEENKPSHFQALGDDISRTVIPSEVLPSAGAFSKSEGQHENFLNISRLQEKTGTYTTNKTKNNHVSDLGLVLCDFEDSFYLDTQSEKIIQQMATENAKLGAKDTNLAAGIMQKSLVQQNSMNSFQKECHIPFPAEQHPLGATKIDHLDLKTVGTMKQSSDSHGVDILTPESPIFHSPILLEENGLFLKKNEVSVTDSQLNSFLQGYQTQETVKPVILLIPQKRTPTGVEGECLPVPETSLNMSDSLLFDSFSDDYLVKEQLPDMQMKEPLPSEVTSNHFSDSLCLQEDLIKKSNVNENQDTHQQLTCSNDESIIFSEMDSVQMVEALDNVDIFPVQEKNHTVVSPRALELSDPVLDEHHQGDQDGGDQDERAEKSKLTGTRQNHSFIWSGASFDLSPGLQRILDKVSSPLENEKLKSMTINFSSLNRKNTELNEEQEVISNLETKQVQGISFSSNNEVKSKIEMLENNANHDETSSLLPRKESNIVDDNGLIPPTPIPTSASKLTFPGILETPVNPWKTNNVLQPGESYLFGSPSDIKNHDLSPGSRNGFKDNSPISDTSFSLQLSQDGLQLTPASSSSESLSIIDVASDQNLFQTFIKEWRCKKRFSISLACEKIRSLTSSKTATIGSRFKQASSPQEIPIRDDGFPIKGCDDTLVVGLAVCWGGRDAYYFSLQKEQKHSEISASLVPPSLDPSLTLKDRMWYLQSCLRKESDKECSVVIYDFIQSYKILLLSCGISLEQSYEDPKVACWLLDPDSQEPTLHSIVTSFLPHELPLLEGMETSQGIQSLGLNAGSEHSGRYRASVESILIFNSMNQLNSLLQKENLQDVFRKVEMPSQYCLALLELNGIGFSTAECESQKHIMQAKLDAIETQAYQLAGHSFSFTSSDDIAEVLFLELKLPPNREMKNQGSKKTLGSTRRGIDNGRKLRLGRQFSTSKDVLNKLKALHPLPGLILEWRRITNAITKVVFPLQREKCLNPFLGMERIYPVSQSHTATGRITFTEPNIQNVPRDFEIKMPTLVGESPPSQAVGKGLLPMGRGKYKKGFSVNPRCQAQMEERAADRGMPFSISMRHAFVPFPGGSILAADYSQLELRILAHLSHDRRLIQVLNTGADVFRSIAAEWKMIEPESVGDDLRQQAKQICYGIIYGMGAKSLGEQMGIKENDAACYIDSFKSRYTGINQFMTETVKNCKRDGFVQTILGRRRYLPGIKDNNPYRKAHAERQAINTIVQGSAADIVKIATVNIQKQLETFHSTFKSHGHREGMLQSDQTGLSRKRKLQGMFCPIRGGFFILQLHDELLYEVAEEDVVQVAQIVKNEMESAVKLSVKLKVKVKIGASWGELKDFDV

SMILES: CCN(C(=O)[C@@H]1C[C@H](NC2CNC2)CN1c1nc(C)cc(C)c1C#N)c1cccc(C)c1 [Example 51, (2S,4S)-4-(Azetidin-3-ylamino)-1-(3-cyano-4,6-dimethylpyridin-2-yl)-N-ethyl-N-(m-tolyl)pyrrolidine-2-carboxamide]
- IC50 (Polθ IC50 (nM)): 1560 nM

SMILES: Cc1cc(C(F)(F)F)cc(N2C(=O)OC[C@H]2C(=O)N(C)c2ccc3c(c2)COC3)n1 [Example 102, (S)-N-(1,3-Dihydroisobenzofuran-5-yl)-N-methyl-3-(6-methyl-4-(trifluoromethyl)pyridin-2-yl)-2-oxooxazolidine-4-carboxamide]
- IC50 (Polθ IC50 (nM)): 86 nM

SMILES: CCN(C(=O)[C@@H]1[C@H](O)[C@H](O)CN1c1nc(C)cc(C(F)(F)F)c1C#N)c1ccc(F)c(Cl)c1 [Example 57, (2S,3S,4R)-N-(3-Chloro-4-fluoro-phenyl)-1-(3-cyano-6-methyl-4-(trifluoromethyl)pyridin-2-yl)-N-ethyl-3,4-dihydroxypyrrolidine-2-carboxamide]
- IC50 (Polθ IC50 (nM)): 10 nM

SMILES: Cc1cc(C(F)(F)F)cc(N2C(=O)NC[C@H]2C(=O)N(C)c2ccc(F)c(Cl)c2)n1 [Example 156, (S)—N-(3-Chloro-4-fluorophenyl)-N-methyl-3-(6-methyl-4-(trifluoromethyl)pyridin-2-yl)-2-oxoimidazolidine-4-carboxamide]
- IC50 (Polθ IC50 (nM)): 4 nM

SMILES: Cc1cc(C(F)(F)F)cc(N2C(=O)NC[C@H]2C(=O)N(C)c2ccc3c(Cl)c[nH]c3n2)n1 [Example 240, (S)—N-(3-Chloro-1H-pyrrolo[2,3-b]pyridin-6-yl)-N-methyl-3-(6-methyl-4-(trifluoromethyl)pyridin-2-yl)-2-oxoimidazolidine-4-carboxamide]
- IC50 (Polθ IC50 (nM)): 7 nM

SMILES: Cc1cc(C(F)(F)F)cc(N2C(=O)OC[C@H]2C(=O)N(C)c2cccc(N(C)C)n2)n1 [Example 177, (S)—N-(6-(Dimethylamino)pyridin-2-yl)-N-methyl-3-(6-methyl-4-(trifluoromethyl)pyridin-2-yl)-2-oxooxazolidine-4-carboxamide]
- IC50 (Polθ IC50 (nM)): 109 nM

SMILES: CCN(C(=O)[C@@H]1C[C@H](F)CN1c1nc(C)cc(C)c1C#N)c1ccc(F)c(F)c1 [Example 37, (2S,4S)-1-(3-Cyano-4,6-dimethylpyridin-2-yl)-N-(3,4-difluorophenyl)-N-ethyl-4-fluoropyrrolidine-2-carboxamide]
- IC50 (Polθ IC50 (nM)): 248 nM

SMILES: Cc1cc(C(F)(F)F)cc(N2C(=O)CC[C@H]2C(=O)N(C)c2ccc(F)c(C)n2)n1 [Example 60, (S)—N-(5-Fluoro-6-methylpyridin-2-yl)-N-methyl-1-(6-methyl-4-(trifluoromethyl)pyridin-2-yl)-5-oxopyrrolidine-2-carboxamide]
- IC50 (Polθ IC50 (nM)): 76 nM

SMILES: CCN(C(=O)[C@@H]1C[C@H](N2CCOC(CO)C2)CN1c1cc(C(F)(F)F)cc(C)n1)c1ccc(F)c(F)c1 (stereo partly drawn) [Example 128, (2S,4S)-N-(3,4-Difluorophenyl)-N-ethyl-4-(2-(hydroxymethyl)morpholino)-1-(6-methyl-4-(trifluoromethyl)pyridin-2-yl)pyrrolidine-2-carboxamide]
- IC50 (Polθ IC50 (nM)): 42 nM

SMILES: CCN(C(=O)[C@@H]1C[C@H](N(C)[C@@H]2CN(C(=O)OC(C)(C)C)C[C@H]2O)CN1c1cc(C(F)(F)F)cc(C)n1)c1ccc(F)c(F)c1 (racemic) [Example 143, rac-tert-Butyl (3R,4R)-3-(((3S,5S)-5-((3,4-difluorophenyl)(ethyl)carbamoyl)-1-(6-methyl-4-(trifluoromethyl)pyridin-2-yl)pyrrolidin-3-yl)(methyl)amino)-4-hydroxypyrrolidine-1-carboxylate]
- IC50 (Polθ IC50 (nM)): 409 nM

SMILES: Cc1cc(C(F)(F)F)cc(N2C(=O)[C@@H](COCc3ccccc3)C[C@H]2C(=O)N(C)c2ccc(F)c(Cl)c2)n1 [Example 76, (2S,4R)-4-((Benzyloxy)methyl)-N-(3-chloro-4-fluorophenyl)-N-methyl-1-(6-methyl-4-(trifluoromethyl)pyridin-2-yl)-5-oxopyrrolidine-2-carboxamide]
- IC50 (Polθ IC50 (nM)): 24 nM

SMILES: Cc1cc(C(F)(F)F)cc(N2C(=O)OC[C@H]2C(=O)N(C)c2cc(Cl)c(F)cc2F)n1 [Example 98, (S)-N-(5-Chloro-2,4-difluorophenyl)-N-methyl-3-(6-methyl-4-(trifluoromethyl)pyridin-2-yl)-2-oxooxazolidine-4-carboxamide]
- IC50 (read-out: Polθ IC50): 32 nM

SMILES: CCN(C(=O)[C@@H]1C[C@H](N[C@@H]2CN(C(=O)OC(C)(C)C)C[C@H]2O)CN1c1cc(C(F)(F)F)cc(C)n1)c1ccc(F)c(F)c1 (racemic) [Example 135, rac-tert-Butyl (3R,4R)-3-(((3S,5S)-5-((3,4-difluorophenyl)(ethyl)carbamoyl)-1-(6-methyl-4-(trifluoromethyl)-pyridin-2-yl)pyrrolidin-3-yl)amino)-4-hydroxypyrrolidine-1-carboxylate]
- IC50 (Polθ IC50 (nM)): 223 nM

SMILES: Cc1cc(C(F)(F)F)cc(N2C(=O)N(CC3(O)CNC3)C[C@H]2C(=O)N(C)c2ccc(F)c(Cl)c2F)n1 [Example 224, (S)—N-(3-Chloro-2,4-difluorophenyl)-1-((3-hydroxyazetidin-3-yl)methyl)-N-methyl-3-(6-methyl-4-(trifluoromethyl)pyridin-2-yl)-2-oxoimidazolidine-4-carboxamide]
- IC50 (Polθ IC50 (nM)): 6 nM

More lines, in order of falling IC50 (Polθ IC50 (nM)), values ahead:

- IC50 (Polθ IC50 (nM)): 208 nM
SMILES: CCN(C(=O)[C@@H]1C[C@H](NC(C)=O)C(=O)N1c1cc(C(F)(F)F)cc(C)n1)c1ccc(F)c(Cl)c1 [Example 62, (2S,4S)-4-Acetamido-N-(3-chloro-4-fluorophenyl)-N-ethyl-1-(6-methyl-4-(trifluoromethyl)pyridin-2-yl)-5-oxopyrrolidine-2-carboxamide]

- IC50 (Polθ IC50 (nM)): 180 nM
SMILES: Cc1cc(C)c(C#N)c(N2C[C@@H](O)C[C@H]2C(=O)N(C)c2cccc(Cl)c2)n1 [Example 13, (2S,4S)-N-(3-Chlorophenyl)-1-(3-cyano-4,6-dimethylpyridin-2-yl)-4-hydroxy-N-methylpyrrolidine-2-carboxamide]

- IC50 (Polθ IC50 (nM)): 163 nM
SMILES: CCN(C(=O)[C@@H]1C[C@H](N(C)C2COC2)CN1c1cc(C(F)(F)F)cc(C)n1)c1ccc(F)c(F)c1 [Example 146, (2S,4S)-N-(3,4-Difluorophenyl)-N-ethyl-4-(methyl(oxetan-3-yl)amino)-1-(6-methyl-4-(trifluoromethyl)pyridin-2-yl)pyrrolidine-2-carboxamide]

- IC50 (Polθ IC50 (nM)): 94 nM
SMILES: CN(C(=O)[C@@H]1COC(=O)N1c1cc(OC(F)F)cc(Cl)n1)c1ccc(F)c(Cl)c1 [Example 120, (S)-3-(6-Chloro-4-(difluoromethoxy)pyridin-2-yl)-N-(3-chloro-4-fluorophenyl)-N-methyl-2-oxooxazolidine-4-carboxamide]

- IC50 (Polθ IC50 (nM)): 54 nM
SMILES: CCc1cc(C(F)(F)F)cc(N2C(=O)OC[C@H]2C(=O)N(C)c2ccc(F)c(Cl)c2)n1 [Example 115, (S)—N-(3-Chloro-4-fluorophenyl)-3-(6-ethyl-4-(trifluoromethyl)pyridin-2-yl)-N-methyl-2-oxooxazolidine-4-carboxamide]

- IC50 (Polθ IC50 (nM)): 15 nM
SMILES: Cc1cc(C(F)(F)F)cc(N2C(=O)N(CCC(O)CO)C[C@H]2C(=O)N(C)c2ccc(F)c(Cl)c2)n1 (stereo partly drawn) [Example 232, (4S)—N-(3-Chloro-4-fluorophenyl)-1-(3,4-dihydroxybutyl)-N-methyl-3-(6-methyl-4-(trifluoromethyl)pyridin-2-yl)-2-oxoimidazolidine-4-carboxamide]

- IC50 (Polθ IC50 (nM)): 11 nM
SMILES: Cc1cc(C(F)(F)F)cc(N2C(=O)N(CC3CN(C)CCO3)C[C@H]2C(=O)N(C)c2ccc(F)c(Cl)c2F)n1 (stereo partly drawn) [Example 219, (4S)—N-(3-Chloro-2,4-difluorophenyl)-N-methyl-3-(6-methyl-4-(trifluoromethyl)pyridin-2-yl)-1-((4-methylmorpholin-2-yl)methyl)-2-oxoimidazolidine-4-carboxamide]

- IC50 (Polθ IC50 (nM)): 10 nM
SMILES: Cc1cc(C(F)(F)F)cc(N2C(=O)N(CCN3CCC3CO)C[C@H]2C(=O)N(C)c2ccc(F)c(Cl)c2F)n1 (stereo partly drawn) [Example 203, (4S)-N-(3-Chloro-2,4-difluoro-phenyl)-1-(2-(2-(hydroxymethyl)-azetidin-1-yl)-ethyl)-N-methyl-3-(6-methyl-4-(trifluoromethyl)pyridin-2-yl)-2-oxoimidazolidine-4-carboxamide]

- IC50 (Polθ IC50 (nM)): 9 nM
SMILES: Cc1cc(C(F)(F)F)cc(N2C(=O)N(CCN3CCS(=O)(=O)CC3)C[C@H]2C(=O)N(C)c2ccc(F)c(Cl)c2F)n1 [Example 208, (S)-N-(3-Chloro-2,4-difluorophenyl)-1-(2-(1,1-dioxidothiomorpholino)-ethyl)-N-methyl-3-(6-methyl-4-(trifluoromethyl)pyridin-2-yl)-2-oxoimidazolidine-4-carboxamide]

- IC50 (Polθ IC50 (nM)): 8 nM
SMILES: Cc1cc(C(F)(F)F)cc(N2C(=O)N(CC3(O)CCN(C)C3)C[C@H]2C(=O)N(C)c2ccc(F)c(Cl)c2F)n1 (stereo partly drawn) [Example 223, (4S)—N-(3-Chloro-2,4-difluorophenyl)-1-((3-hydroxy-1-methylpyrrolidin-3-yl)methyl)-N-methyl-3-(6-methyl-4-(trifluoromethyl)pyridin-2-yl)-2-oxoimidazolidine-4-carboxamide]

- IC50 (Polθ IC50 (nM)): 8 nM
SMILES: Cc1cc(C(F)(F)F)cc(N2C(=O)N(CC(O)CN3CCC(F)C3)C[C@H]2C(=O)N(C)c2ccc(F)c(Cl)c2F)n1 (stereo in doubt) [Example 215, (4S)—N-(3-Chloro-2,4-difluorophenyl)-1-(3-((R)-3-fluoropyrrolidin-1-yl)-2-hydroxy-propyl)-N-methyl-3-(6-methyl-4-(trifluoromethyl)pyridin-2-yl)-2-oxoimidazolidine-4-carboxamide]

- IC50 (Polθ IC50 (nM)): 7 nM
SMILES: Cc1cc(C(F)(F)F)cc(N2C(=O)N(CC(O)CN3CCOCC3)C[C@H]2C(=O)N(C)c2ccc(F)c(Cl)c2F)n1 (stereo partly drawn) [Example 217, (4S)—N-(3-Chloro-2,4-difluorophenyl)-1-(2-hydroxy-3-morpholinopropyl)-N-methyl-3-(6-methyl-4-(trifluoromethyl)pyridin-2-yl)-2-oxoimidazolidine-4-carboxamide]

- IC50 (Polθ IC50 (nM)): 2 nM
SMILES: Cc1cc(C(F)(F)F)cc(N2C(=O)NC[C@H]2C(=O)N(C)c2ccc(F)c(Cl)c2F)n1 [Example 158, (S)—N-(3-Chloro-2,4-difluorophenyl)-N-methyl-3-(6-methyl-4-(trifluoromethyl)pyridin-2-yl)-2-oxoimidazolidine-4-carboxamide]
